Experimental data taken from ChEMBL document CHEMBL4483862, “Open-source discovery of chemical leads for next-generation chemoprotective antimalarials” (2018).

Tested on: Plasmodium berghei
Experiment: Luciferase/luciferin-expressing antifolate-resistant parasites were used to infect a culture of HepG2 cells that were pre-incubated with compounds. Infected hepatocytes emit light due to the luciferase reaction. Assay results are presented as the percent inhibition of light emission compared to control. […]
Type: functional
Settings: sporozoite; for IC90: read-out: LUCIFERASE INFECTION ASSAY - IC90
[1] = read-out: LUCIFERASE INFECTION ASSAY - IC50

SMILES	IC90 [µM]	further results
COc1ccc(CC(N)c2csc(NC(=O)C(c3ccccc3)c3ccccc3)n2)cc1 (configuration not stated)	5.8	IC50 (HEPG2TOX_HILL_SLOPE 15.4, HEPG2TOX_R_SQUARED 0.86, PBLUC_HILL_SLOPE 4.59, PBLUC_R_SQUARED 0.756, read-out: LUCIFERASE INFECTION ASSAY - IC50): 3.59 µM
O=C(Cn1ncc(Br)c(Br)c1=O)C12CC3CC(CC(C3)C1)C2	> 10	IC50 (HEPG2TOX_HILL_SLOPE 11, HEPG2TOX_R_SQUARED 0.947, PBLUC_HILL_SLOPE 1.04, PBLUC_R_SQUARED 0.291, read-out: LUCIFERASE INFECTION ASSAY - IC50): 2.75 µM
O=C1C=CC(=O)N1c1ccccc1Oc1ccc(Cl)cc1Cl	> 9.88	IC50 (PBLUC_HILL_SLOPE 0.641, PBLUC_R_SQUARED 0.0559, read-out: LUCIFERASE INFECTION ASSAY - IC50): > 9.88 µM
Cc1cc(C)c(-c2csc(NC(=O)C3CC4CCCC(C3)C4=O)n2)c(C)c1 (configuration not stated)	> 10	IC50 (HEPG2TOX_HILL_SLOPE 3.24, HEPG2TOX_R_SQUARED 0.936, PBLUC_HILL_SLOPE 1.48, PBLUC_R_SQUARED 0.583, read-out: LUCIFERASE INFECTION ASSAY - IC50): 2.93 µM
NS(=O)(=O)c1cccc(NC(=O)CCc2ccccc2Cl)c1	> 10	IC50 [1]: > 10 µM
O=C(NC1CC1)c1cccc(NC(C(=O)Nc2cc(C(F)(F)F)ccc2Cl)c2ccccc2)c1 (configuration not stated)	> 10	IC50 [1]: 9.94 µM
COc1ccc(-c2cc(NC=O)c3ncc(-c4ccc(OC)c(OC)c4)n3c2)c(OC)c1	0.0326	IC50 (HEPG2TOX_HILL_SLOPE 0.668, HEPG2TOX_R_SQUARED 0.811, PBLUC_HILL_SLOPE 48.6, PBLUC_R_SQUARED 0.635, read-out: LUCIFERASE INFECTION ASSAY - IC50): 0.0312 µM
Cc1ccc(S(=O)(=O)Nc2ccc(Nc3nccn4c(-c5ccc(OC(F)(F)F)cc5)cnc34)cc2)cc1	3.49	IC50 (PBLUC_HILL_SLOPE 1.58, PBLUC_R_SQUARED 0.687, read-out: LUCIFERASE INFECTION ASSAY - IC50): 0.867 µM
CC(=O)c1cccc(-c2cnc3ccc(-c4cccc(C(N)=O)c4)nn23)c1	0.628	IC50 (HEPG2TOX_HILL_SLOPE 1.55, HEPG2TOX_R_SQUARED 0.943, PBLUC_HILL_SLOPE 2.62, PBLUC_R_SQUARED 0.854, read-out: LUCIFERASE INFECTION ASSAY - IC50): 0.271 µM
O=C(Nc1ccnn1Cc1cccc(Cl)c1)c1csc(-c2ccsc2)n1	> 10	IC50 [1]: > 10 µM
O=C(Nc1cccc2ccccc12)N1CCN(c2ncccc2C(F)(F)F)CC1	0.105	IC50 (HEPG2TOX_HILL_SLOPE 3.44, HEPG2TOX_R_SQUARED 0.402, PBLUC_HILL_SLOPE 82.3, PBLUC_R_SQUARED 0.563, read-out: LUCIFERASE INFECTION ASSAY - IC50): 0.102 µM
C=CCN(c1ccccc1OC)S(=O)(=O)c1ccc(Cl)c(C(=O)Nc2nc3ccccc3[nH]2)c1	> 10	IC50 (HEPG2TOX_HILL_SLOPE 2.58, HEPG2TOX_R_SQUARED 0.695, PBLUC_HILL_SLOPE 1.17, PBLUC_R_SQUARED 0.361, read-out: LUCIFERASE INFECTION ASSAY - IC50): 2.23 µM
CC(=O)c1sc2sc(C#N)c(C)c2c1C	> 14	IC50 [1]: > 14 µM
COc1ccc(C)cc1CN1CCN(c2ccc(S(=O)(=O)NC(C)(C)C)cc2[N+](=O)[O-])CC1	> 10	IC50 (PBLUC_HILL_SLOPE 0.589, PBLUC_R_SQUARED 0.215, read-out: LUCIFERASE INFECTION ASSAY - IC50): > 10 µM
CC(C)(C)c1ccc(OS(=O)(=O)c2ccc(-c3csnn3)s2)cc1	> 8.67	IC50 (HEPG2TOX_HILL_SLOPE 1.63, HEPG2TOX_R_SQUARED 0.666, PBLUC_HILL_SLOPE 2.62, PBLUC_R_SQUARED 0.635, read-out: LUCIFERASE INFECTION ASSAY - IC50): 5.74 µM
COc1ccc(C(=O)c2cc(C#N)c(N)n3c2nc2ccccc23)cc1	3.53	IC50 (HEPG2TOX_HILL_SLOPE 1.32, HEPG2TOX_R_SQUARED 0.922, PBLUC_HILL_SLOPE 2.77, PBLUC_R_SQUARED 0.822, read-out: LUCIFERASE INFECTION ASSAY - IC50): 1.6 µM

SMILES	IC90 [µM]	further results
COc1ccc(N(CCC23CC4CC(CC(C4)C2)C3)S(=O)(=O)c2ccccc2)cc1	> 10	IC50 [1]: > 10 µM
Cc1ccc(-c2cc(C(=O)NNC(=O)c3nn(C)c(=O)c4ccccc34)[nH]n2)cc1	> 10	IC50 [1]: > 10 µM
CCOC(=O)c1cc(C#N)c(Sc2n[nH]c(=O)n2C(C)C)nc1C(F)(F)F	> 8.22	IC50 (HEPG2TOX_HILL_SLOPE 15.1, HEPG2TOX_R_SQUARED 0.842, PBLUC_HILL_SLOPE 4.42, PBLUC_R_SQUARED 0.232, read-out: LUCIFERASE INFECTION ASSAY - IC50): 5.41 µM
CC(=O)N1CCc2cc(C(=O)C(C)OC(=O)/C(=C/c3ccc(F)cc3)c3cccs3)ccc21 (configuration not stated)	> 10	IC50 [1]: 7.08 µM
O=C(NCCC1=CCCCC1)c1cc2ccccc2c(=O)[nH]1	> 10	IC50 (HEPG2TOX_HILL_SLOPE 1.23, HEPG2TOX_R_SQUARED 0.699, PBLUC_HILL_SLOPE 12.6, PBLUC_R_SQUARED 0.339, read-out: LUCIFERASE INFECTION ASSAY - IC50): 9.57 µM
CCn1c2ccccc2c2cc(CNCCNC(=O)c3nonc3N)ccc21	> 8.72	IC50 [1]: > 8.72 µM
CC(C)(C)c1ccc(Oc2ccc(N)cc2)cc1	4.63	IC50 (PBLUC_HILL_SLOPE 1.38, PBLUC_R_SQUARED 0.811, read-out: LUCIFERASE INFECTION ASSAY - IC50): 0.942 µM
CCCCNC(=O)c1c(NC(=O)c2ccccc2)nc2ccc(C)cn12	6.8	IC50 (FFLUC_HILL_SLOPE 60.4, FFLUC_R_SQUARED 0.28, HEPG2TOX_HILL_SLOPE 6.52, HEPG2TOX_R_SQUARED 0.955, PBLUC_HILL_SLOPE 4.31, PBLUC_R_SQUARED 0.763, read-out: LUCIFERASE INFECTION ASSAY - IC50): 4.08 µM
FC(F)(F)Oc1cccc(-c2nnc3ccc(-c4cccc5ncccc45)cn23)c1	2.55	IC50 (HEPG2TOX_HILL_SLOPE 0.706, HEPG2TOX_R_SQUARED 0.938, PBLUC_HILL_SLOPE 2.17, PBLUC_R_SQUARED 0.421, read-out: LUCIFERASE INFECTION ASSAY - IC50): 0.928 µM
CCn1c2ccccc2c2cc(Nc3c(C#N)c(=O)n(C)c(=O)n3C)ccc21	0.508	IC50 (HEPG2TOX_HILL_SLOPE 1.91, HEPG2TOX_R_SQUARED 0.9, PBLUC_HILL_SLOPE 11.3, PBLUC_R_SQUARED 0.663, read-out: LUCIFERASE INFECTION ASSAY - IC50): 0.418 µM
O=C(Nc1ccccc1)c1ccc(CN2CCCC(C(F)(F)F)C2)cc1 (configuration not stated)	8.25	IC50 [1]: 2.2 µM
C=CCNC(=O)NC(=O)COC(=O)c1c2c(nc3ccccc13)/C(=C/c1cccs1)CCC2	> 10	IC50 (PBLUC_HILL_SLOPE 2.17, PBLUC_R_SQUARED 0.466, read-out: LUCIFERASE INFECTION ASSAY - IC50): 7.2 µM
CC1CCCCC1Nc1ncnc2sccc12 (configuration not stated)	> 10	IC50 (HEPG2TOX_HILL_SLOPE 0.142, HEPG2TOX_R_SQUARED 0.36, PBLUC_HILL_SLOPE 4.81, PBLUC_R_SQUARED 0.31, read-out: LUCIFERASE INFECTION ASSAY - IC50): 9.81 µM
Nc1c(C(=O)c2ccccc2)sc(Nc2ccccc2)c1C(=O)Nc1ccc(SC(F)F)cc1	1.28	IC50 (HEPG2TOX_HILL_SLOPE 1.49, HEPG2TOX_R_SQUARED 0.921, PBLUC_HILL_SLOPE 11.4, PBLUC_R_SQUARED 0.694, read-out: LUCIFERASE INFECTION ASSAY - IC50): 1.05 µM
Cc1nn(-c2ccccc2)c(Cl)c1/C=N/OCC(=O)Nc1cccc(C(F)(F)F)c1	9.91	IC50 (PBLUC_HILL_SLOPE 4.91, 2.77, PBLUC_R_SQUARED 0.190, 0.335, read-out: LUCIFERASE INFECTION ASSAY - IC50): 5.6 µM
